One assay addresses cloned human H3 receptor (Homo sapiens, UniProt Q9Y5N1). In words: H3 Receptor Binding. Conditions: cloned human H3 receptor stably expressed in SK-N-MC cells.
Another assay addresses Rat SERT (Rattus norvegicus, UniProt P31652). Nature of the assay: biochemical.
The next assay addresses human H3 receptor (Homo sapiens, UniProt Q9Y5N1). Nature of the assay: Cyclic AMP Accumulation (reporter gene, SK-N-MC cells). On the technique in general: Reporter assays use an easily measured gene product as a stand-in for the process of interest.

Sequence of Rat SERT (P31652 whole entry): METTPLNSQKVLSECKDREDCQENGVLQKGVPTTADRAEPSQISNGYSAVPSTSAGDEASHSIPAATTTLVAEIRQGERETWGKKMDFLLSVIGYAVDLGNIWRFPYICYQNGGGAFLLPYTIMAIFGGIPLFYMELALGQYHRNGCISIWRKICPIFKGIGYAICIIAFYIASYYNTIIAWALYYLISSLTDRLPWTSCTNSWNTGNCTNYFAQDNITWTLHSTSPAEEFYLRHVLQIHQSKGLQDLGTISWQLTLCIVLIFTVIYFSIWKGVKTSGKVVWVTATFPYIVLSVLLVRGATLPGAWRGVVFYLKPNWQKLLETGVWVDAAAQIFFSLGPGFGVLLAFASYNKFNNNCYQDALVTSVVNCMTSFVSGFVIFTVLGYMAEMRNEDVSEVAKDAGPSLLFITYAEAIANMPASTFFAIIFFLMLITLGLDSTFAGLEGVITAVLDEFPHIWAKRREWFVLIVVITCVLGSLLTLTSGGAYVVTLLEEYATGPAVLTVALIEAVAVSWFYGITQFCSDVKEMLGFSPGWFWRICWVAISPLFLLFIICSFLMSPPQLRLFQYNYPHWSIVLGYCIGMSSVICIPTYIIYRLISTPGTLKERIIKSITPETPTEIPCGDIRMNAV
Sequence of cloned human H3 receptor (Q9Y5N1 whole entry): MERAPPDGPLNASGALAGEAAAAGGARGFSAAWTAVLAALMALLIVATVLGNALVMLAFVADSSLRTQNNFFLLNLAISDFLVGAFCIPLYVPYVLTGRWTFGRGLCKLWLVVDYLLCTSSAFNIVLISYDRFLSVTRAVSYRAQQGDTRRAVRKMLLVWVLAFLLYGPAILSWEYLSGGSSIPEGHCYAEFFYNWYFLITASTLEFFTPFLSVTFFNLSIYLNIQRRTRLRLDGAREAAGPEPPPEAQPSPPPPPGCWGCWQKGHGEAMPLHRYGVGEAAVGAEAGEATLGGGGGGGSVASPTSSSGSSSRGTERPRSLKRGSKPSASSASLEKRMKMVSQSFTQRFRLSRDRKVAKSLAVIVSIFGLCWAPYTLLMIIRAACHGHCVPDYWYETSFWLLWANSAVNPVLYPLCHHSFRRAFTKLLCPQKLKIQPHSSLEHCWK
Sequence of human H3 receptor (Q9Y5N1 whole entry): as above
Experimental for Rat SERT: The supernatant was removed and re-centrifuged at 15,000 rpm for 30 min. […] Membranes were incubated with 0.6 nM [^3H]-Citalopram plus/minus test compounds for 60 min at 25° C. and harvested by rapid filtration over GF/C glass fiber filters (pretreated with 0.3% polyethylenimine) followed by four washes with ice-cold buffer. Nonspecific binding was defined in the presence of 100 μM fluoxetine.

What is called Ki is a dissociation constant, usually derived from enzyme kinetics or from competition with a known ligand. Consider `CNCc1cc(N2CCN(c3ccncc3)CC2)ccc1Oc1ccc(SC)cc1` [Example 43, Methyl-[2-(4-methylsulfanyl-phenoxy)-5-(4-pyridin-4-yl-piperazin-1-yl)-benzyl]-amine], for which the inhibition constant Ki on cloned human H3 receptor came to 110 nM; on Rat SERT it was 0.7 nM.
Consider `CNCc1cc(N2CCN(C)CC2)ccc1Oc1ccc(SC)cc1` [Example 41, Methyl-[5-(4-methyl-piperazin-1-yl)-2-(4-methylsulfanyl-phenoxy)-benzyl]-amine], for which the Ki stood at 210 nM at cloned human H3 receptor and 0.4 nM on Rat SERT.
Regarding `CNCc1cc(CN2CCN(C(C)C)CC2)ccc1Oc1ccc(SC)cc1` [Example 61, [5-(4-Isopropyl-piperazin-1-ylmethyl)-2-(4-methylsulfanyl-phenoxy)-benzyl]-methyl-amine], the inhibition constant Ki on cloned human H3 receptor is 2 nM; at Rat SERT it was 0.8 nM.
Turning to `CNCc1cc(CN2CCN(C(C)C)CCC2=O)ccc1Oc1ccc(Cl)c(Cl)c1` [Example 69, 4-[4-(3,4-Dichloro-phenoxy)-3-methylaminomethyl-benzyl]-1-isopropyl-[1,4]diazepan-5-one], the Ki at cloned human H3 receptor was 110 nM; at Rat SERT, 4 nM.
For `CNCc1cc(N2CCN(C(C)C)CC2=O)ccc1Oc1ccc(Cl)c(Cl)c1` [Example 50, 1-[4-(3,4-Dichloro-phenoxy)-3-methylaminomethyl-phenyl]-4-isopropyl-piperazin-2-one] the same measures were 150 nM and 7 nM.
Take `CNCc1cc(C(=O)N2CCN(C3CCC3)CC2)ccc1Oc1cccc(Cl)c1` [Example 72, [4-(3-Chloro-phenoxy)-3-methylaminomethyl-phenyl]-(4-cyclobutyl-piperazin-1-yl)-methanone]: the Ki is 4 nM at cloned human H3 receptor and 65 nM on Rat SERT.
Consider `CSc1ccc(Oc2ccc(CN3CCN(C(C)C)CC3)cc2CN(C)C)cc1` [Example 62, [5-(4-Isopropyl-piperazin-1-ylmethyl)-2-(4-methylsulfanyl-phenoxy)-benzyl]-dimethyl-amine], for which the values for the Ki at cloned human H3 receptor and at Rat SERT were 21 nM and 1 nM, respectively.
Take `CNCc1cc(CN2CCN(C(C)C)C(=O)C2)ccc1Oc1ccc(Cl)c(Cl)c1` [Example 66, 4-[4-(3,4-Dichloro-phenoxy)-3-methylaminomethyl-benzyl]-1-isopropyl-piperazin-2-one]: the Ki at cloned human H3 receptor was determined as 2500 nM; on Rat SERT it was 6 nM.
Turning to `CC(C)N1CCN(C(=O)c2ccc(CN3CCCCC3)c(Oc3cccnc3)c2)CC1` [Example 33, (4-Isopropyl-piperazin-1-yl)-[4-piperidin-1-ylmethyl-3-(pyridin-3-yloxy)-phenyl]-methanone], the Ki on cloned human H3 receptor was determined as 2 nM. In addition, the Kb on human H3 receptor is 0.316 nM.
Take `CNCc1cc(N2CCCN(C3CC3)CC2)ccc1Oc1ccc(Cl)c(Cl)c1` [Example 56, [5-(4-Cyclopropyl-[1,4]diazepan-1-yl)-2-(3,4-dichloro-phenoxy)-benzyl]-methyl-amine]: the Ki on cloned human H3 receptor was 25 nM; at Rat SERT it was 16 nM.
As to `CNCc1ccc(C(=O)N2CCN(C(C)C)CC2)cc1Oc1ccc(Cl)c(Cl)c1` [Example 37, [3-(3,4-Dichloro-phenoxy)-4-methylaminomethyl-phenyl]-(4-isopropyl-piperazin-1-yl)-methanone], the Ki turned out to be 1 nM at cloned human H3 receptor and 2 nM on Rat SERT.
Turning to `CNCc1cc(N2CCN(C(C)C)CC2=O)ccc1Oc1ccc(SC)cc1` [Example 49, 4-Isopropyl-1-[3-methylaminomethyl-4-(4-methylsulfanyl-phenoxy)-phenyl]-piperazin-2-one], the Ki on cloned human H3 receptor is 400 nM; at Rat SERT, 2 nM.
With `CNCc1cc(N2CCC(N3CCOCC3)CC2)ccc1Oc1ccc(SC)cc1` [Example 51, Methyl-[2-(4-methylsulfanyl-phenoxy)-5-(4-morpholin-4-yl-piperidin-1-yl)-benzyl]-amine], the figures for the inhibition constant Ki on cloned human H3 receptor and on Rat SERT were 28 nM and 2 nM, respectively.
As for `CSc1ccc(Oc2ccc(CN3CCN(C(C)C)CC3)cc2CN)cc1` [Example 65, 5-(4-Isopropyl-piperazin-1-ylmethyl)-2-(4-methylsulfanyl-phenoxy)-benzylamine], the Ki at cloned human H3 receptor turned out to be 4 nM; at Rat SERT, 18 nM.
For `CN(C)C1CCN(C(=O)c2ccc(CN3CCCCC3)c(Oc3cccnc3)c2)C1` (centres unmarked) [Example 35, (3-Dimethylamino-pyrrolidin-1-yl)-[4-piperidin-1-ylmethyl-3-(pyridin-3-yloxy)-phenyl]-methanone], affinity on cloned human H3 receptor was put at a Ki of 7 nM. Besides, at human H3 receptor, the Kb is 2.51 nM.
Consider `CNCc1cc(N2CCN(CCF)CC2)ccc1Oc1ccc(SC)cc1` [Example 44, [5-[4-(2-Fluoro-ethyl)-piperazin-1-yl]-2-(4-methylsulfanyl-phenoxy)-benzyl]-methyl-amine], for which the figures for the Ki on cloned human H3 receptor and on Rat SERT were 160 nM and 0.5 nM, respectively.
As to `CCNCc1cc(CN2CCN(C(C)C)CC2)ccc1Oc1ccc(SC)cc1` [Example 63, Ethyl-[5-(4-isopropyl-piperazin-1-ylmethyl)-2-(4-methylsulfanyl-phenoxy)-benzyl]-amine], the values for the Ki on cloned human H3 receptor and on Rat SERT were 0.9 nM and 6 nM, respectively.
Turning to `CNCc1cc(C(=O)N2CCC(N3CCOCC3)CC2)ccc1Oc1ccc(SC)cc1` [Example 23, [3-Methylaminomethyl-4-(4-methylsulfanyl-phenoxy)-phenyl]-(4-morpholin-4-yl-piperidin-1-yl)-methanone], the figures for the Ki on cloned human H3 receptor and on Rat SERT were 50 nM and 3 nM, respectively.
With `CN(C)Cc1ccc(C(=O)N2CCN(C3CC3)CC2)cc1OCc1ccccc1` [Example 81, (3-Benzyloxy-4-dimethylaminomethyl-phenyl)-(4-cyclopropyl-piperazin-1-yl)-methanone], the Ki at cloned human H3 receptor was 67 nM; at Rat SERT, 8000 nM.
With `CNCc1cc(N2CCNCC2=O)ccc1Oc1ccc(SC)cc1` [Example 48, 1-[3-Methylaminomethyl-4-(4-methylsulfanyl-phenoxy)-phenyl]-piperazin-2-one], the Ki on cloned human H3 receptor amounted to 5500 nM; on Rat SERT, 0.4 nM.
`CNCc1cc(C(=O)N2CCN(C3CC3)CC2)ccc1Oc1ccc(F)c(Cl)c1` [Example 21, [4-(3-Chloro-4-fluoro-phenoxy)-3-methylaminomethyl-phenyl]-(4-cyclopropyl-piperazin-1-yl)-methanone]: the Ki on cloned human H3 receptor turned out to be 32 nM; at Rat SERT it was 19 nM.
On to `CNCc1ccc(C(=O)N2CCN(C(C)C)CC2)cc1Oc1cccc(Cl)c1` [Example 38, [3-(3-Chloro-phenoxy)-4-methylaminomethyl-phenyl]-(4-isopropyl-piperazin-1-yl)-methanone], for which the results for the Ki on cloned human H3 receptor and on Rat SERT were 4 nM and 130 nM, respectively.
For `CNCc1cc(C(=O)NCCN(C)C)ccc1Oc1cccc(Cl)c1` [Example 26, 4-(3-Chloro-phenoxy)-N-(2-dimethylamino-ethyl)-3-methylaminomethyl-benzamide] the same measures were 100 nM and 3 nM.
On the same counts, the results for `CNCc1cc(N2CCN(C3CCC3)CC2)ccc1Oc1ccc(SC)cc1` [Example 42, [5-(4-Cyclobutyl-piperazin-1-yl)-2-(4-methylsulfanyl-phenoxy)-benzyl]-methyl-amine] are 6 nM and 0.3 nM.
Take `CNCc1cc(N2CC[C@H](N(C)C)C2)ccc1Oc1ccc(SC)cc1` [Example 58, (S)-Dimethyl-{1-[3-methylaminomethyl-4-(4-methylsulfanyl-phenoxy)-phenyl]-pyrrolidin-3-yl}-amine]: the Ki on cloned human H3 receptor is 300 nM; on Rat SERT, 6 nM.

The record behind these values is patent publication US7479493B2, “Substituted benzyl amine compounds” (Janssen Pharmaceutica N.V., priority 2006, dated 2009).
